Test results taken from ChEMBL document CHEMBL1201862, “PubChem BioAssay data set” (2004).
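The compound was tested at five concentrations on cells cultured in 96-well plates, with a 48-hour exposure period. GI50: concentration for 50% inhibition of growth.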 Active and inactive are the calls of the source. Cut-off read from the data, not from the text of the source: active = GI50 up to about 1.1 µM and inactive = higher.

Key:
Assay in all cases: NCI tumour cell line growth inhibition, 48 h
[1] = system: A498
[2] = system: HCC 2998
[3] = system: HOP-62
[4] = system: K562
[5] = system: LXFL 529
[6] = system: Malme-3M
[7] = system: NCI-H226
[8] = system: NCI-H522
[9] = system: SF-268
[10] = system: SF-295
[11] = system: SK-MEL-2
[12] = system: SK-MEL-5
[13] = system: SN12C
[14] = system: SNB-75
[15] = system: U-251
[16] = system: UACC-62

Measured: GI50

C/C(CC(=O)CCC(=O)Nc1cccc(C(F)(F)F)c1)=N\NC(=O)NN
inactive: [1] > 100 µM | [2] > 100 µM | [3] > 100 µM | [4] > 100 µM | [5] > 100 µM | [6] > 100 µM | [7] > 100 µM | [8] > 100 µM | [9] > 100 µM | [10] > 100 µM | [11] > 100 µM | [12] > 100 µM | [13] > 100 µM | [14] > 100 µM | [15] > 100 µM | [16] > 100 µM

O=C1CCCC/C1=C/C=C/c1ccccc1
inactive: [1] > 100 µM | [2] > 100 µM | [4] 32.4 µM | [5] 64.9 µM | [6] 87.9 µM | [7] > 100 µM | [8] 30.7 µM | [9] 59.7 µM | [10] 48.6 µM | [11] > 100 µM | [12] 41.2 µM | [13] > 100 µM | [14] 32.7 µM | [15] 83 µM | [16] 52.1 µM

O=C(O[C@H]1[C@@H]2C=CO[C@@H](OC3OC(CO)C(O)C(O)C3O)[C@@H]2[C@@]2(CO)O[C@@H]12)c1ccc(O)c(O)c1 (stereo not given in full)
inactive: [1] > 100 µM | [2] > 100 µM | [3] > 100 µM | [4] > 100 µM | [5] > 100 µM | [6] > 100 µM | [8] > 100 µM | [9] > 100 µM | [10] > 100 µM | [11] > 100 µM | [12] > 100 µM | [13] > 100 µM | [14] > 100 µM | [15] > 100 µM | [16] > 100 µM

CCOC(=O)c1ccc(/N=C\c2ccc(N(CCC#N)CCC#N)cc2)cc1
inactive: [1] > 100 µM | [3] 40.5 µM | [4] 28.2 µM | [5] 20.8 µM | [6] > 100 µM | [7] > 100 µM | [8] 49.5 µM | [9] 84.7 µM | [10] > 100 µM | [11] > 100 µM | [12] 78.3 µM | [13] > 100 µM | [14] 47.4 µM | [16] 21.5 µM

CCN(CC)c1c(C(=O)/C=C/c2ccc(Cl)cc2)c(-c2ccccc2)nn(C)c1=O
inactive: [1] 2.03 µM | [2] 1.85 µM | [3] 2.12 µM | [4] 2.54 µM | [5] 1.85 µM | [6] 2.22 µM | [7] 2.05 µM | [8] 1.59 µM | [9] 1.7 µM | [10] 1.85 µM | [11] 1.93 µM | [12] 1.72 µM | [13] 2.1 µM | [14] 2.97 µM | [15] 1.76 µM | [16] 1.71 µM

Cc1nc(C(N)=S)sc1C(=O)/C=C/c1c(O)ccc2ccccc12
inactive: [1] > 100 µM | [2] > 100 µM | [3] > 100 µM | [4] 25.9 µM | [5] 30 µM | [6] > 90.2 µM | [7] > 100 µM | [8] 26.9 µM | [9] 28.5 µM | [10] 51.5 µM | [11] > 100 µM | [12] 32.4 µM | [13] > 88.1 µM | [14] 53.7 µM | [15] > 100 µM | [16] 29.6 µM

Cc1ccc(C2=C(c3ccccc3)C(O)(c3ccc(C)cc3)C(c3ccccc3)=C2c2ccc(C)cc2)cc1
inactive: [1] > 100 µM | [2] > 100 µM | [3] > 100 µM | [4] > 100 µM | [5] 60.1 µM | [6] > 100 µM | [9] > 100 µM | [10] > 100 µM | [11] > 100 µM | [12] > 100 µM | [13] > 100 µM | [15] > 100 µM | [16] > 100 µM

O/N=C1/C(=C/c2ccc(Br)cc2)CCCC1C(NO)c1ccc(Br)cc1 (stereo not given)
inactive: [1] 10.3 µM | [4] > 100 µM | [5] 14.8 µM | [6] 15.7 µM | [8] 16 µM | [9] 13.6 µM | [10] 16.7 µM | [11] 16.7 µM | [13] 12.4 µM | [14] 19.1 µM | [15] 18.9 µM | [16] 13.9 µM

O=C1[C@H]2ON(c3ccccc3)C(c3ccccc3F)[C@H]2C(=O)N1c1ccc(Cc2ccc(N3C(=O)[C@@H]4ON(c5ccccc5)C(c5ccccc5F)[C@@H]4C3=O)cc2)cc1 (stereo not given in full)
inactive: [1] > 100 µM | [2] > 100 µM | [3] > 100 µM | [4] > 100 µM | [5] > 100 µM | [6] > 100 µM | [7] > 100 µM | [9] > 100 µM | [10] 67.1 µM | [11] > 100 µM | [12] > 100 µM | [13] > 100 µM | [14] > 100 µM | [15] > 100 µM | [16] > 100 µM

CC(=O)OCC1OC(n2c(=O)n(-c3ccccc3)c(=O)c3ccccc32)C(OC(C)=O)C(OC(C)=O)C1OC(C)=O (stereo not given)
inactive: [1] > 100 µM | [2] > 100 µM | [3] > 100 µM | [4] > 100 µM | [5] > 100 µM | [6] > 100 µM | [7] > 100 µM | [8] > 100 µM | [9] > 100 µM | [10] > 100 µM | [11] > 100 µM | [12] > 100 µM | [13] > 100 µM | [14] > 100 µM | [15] > 100 µM | [16] > 100 µM

CC(C)(C)C(=O)N1C(C(=O)O)Cc2ccccc2[C@@H]1Cc1ccccc1 (stereo not given in full)
inactive: [1] > 100 µM | [2] > 100 µM | [3] > 100 µM | [4] > 100 µM | [5] > 100 µM | [6] > 100 µM | [7] 45.6 µM | [8] > 100 µM | [9] > 100 µM | [10] > 100 µM | [11] > 100 µM | [12] > 100 µM | [13] > 100 µM | [14] > 100 µM | [15] > 100 µM | [16] > 100 µM

Cn1c(=O)nc2n(-c3cccc(Cl)c3)c3ccccc3nc-2c1=O
inactive: [1] 30.5 µM | [2] 10.7 µM | [3] 28.6 µM | [4] 14.1 µM | [5] 18.6 µM | [6] 3.5 µM | [7] 22 µM | [8] 15.1 µM | [9] 18.2 µM | [10] 16.6 µM | [11] 17.1 µM | [12] 10.5 µM | [13] 12.8 µM | [14] 15.3 µM | [15] 15.3 µM | [16] 2.68 µM

Cc1cc(OC(=O)c2c(C)cc(OC(=O)c3c(C)cc(O)cc3O)cc2O)cc(O)c1C(=O)O [GYROPHORIC ACID]
inactive: [1] > 100 µM | [2] > 100 µM | [3] > 100 µM | [4] > 100 µM | [5] > 100 µM | [6] > 100 µM | [8] > 100 µM | [9] > 100 µM | [10] > 100 µM | [11] > 100 µM | [12] > 100 µM | [13] > 100 µM | [14] 91.6 µM | [15] > 100 µM | [16] > 100 µM
